Data published in patent US4351948A, “Imidazole hydrazone derivatives” (priority 1980, dated 1982).
Counter-ions that a name gives are not always drawn. Like-named read-outs stand apart in the source and are kept apart here.

Tests used:
Experiment in all cases: Antianaerobic activity, MIC by standard broth dilution method (Table II)
Type in all cases: cell-based
C. sporogenes ATCC 19404 = settings: Clostridium sporogenes, ATCC19404, 24 h
Description: (§1) The activity of the compounds identified in the Table II below was tested for antianaerobic activity against one strain of Bacteroides fragilis, one strain of Bacteroides uniformis, one strain of Clostridium sporogenes and one strain of Trichomonas vaginalis as the test organism. The methods used involved determining the minimum inhibitory concentration by the standard broth dilution method. The values for metronidazole (2-methyl-5-nitro-1H-imidazole-1-ethanol) are given above for reference purposes. For convenience the compounds are referred to by an internal reference number (an HC number) and this is correlated with the number of the Example wherein its production is described.

T. vaginalis ATCC 30001 = settings: Trichomonas vaginalis, ATCC30001, 24 h, read-out: Minimal Inhibitory Concentration (MIC)
Description: as §1, with “The values for metronidazole (2-methyl-5-nitro-1H-imidazole-1-ethanol) are given above for reference purposes.” left out

B. fragilis ATCC 23745 = settings: Bacteroides fragilis, ATCC23745, 24 h, read-out: Minimal Inhibitory Concentration (MIC)
Description: as §1, with “The values for metronidazole (2-methyl-5-nitro-1H-imidazole-1-ethanol) are given above for reference purposes.” left out

B. uniformis ATCC 8492 = settings: Bacteroides uniformis, ATCC8492, 24 h, read-out: Minimal Inhibitory Concentration (MIC)
Description: as §1, with “The values for metronidazole (2-methyl-5-nitro-1H-imidazole-1-ethanol) are given above for reference purposes.” left out

[1] = Test 1, read-out: Minimal Inhibitory Concentration (MIC)
[2] = Test 2, read-out: Minimal Inhibitory Concentration (MIC)
[3] = Test 3, read-out: Minimal Inhibitory Concentration (MIC)

| Compound | MIC (C. sporogenes ATCC 19404; [1]) [µg/mL] | MIC (C. sporogenes ATCC 19404; [2]) [µg/mL] | MIC (C. sporogenes ATCC 19404; [3]) [µg/mL] | MIC (T. vaginalis ATCC 30001; Test 1) [µg/mL] | MIC (T. vaginalis ATCC 30001; Test 2) [µg/mL] | MIC (T. vaginalis ATCC 30001; Test 3) [µg/mL] | MIC (B. fragilis ATCC 23745; Test 1) [µg/mL] | MIC (B. fragilis ATCC 23745; Test 2) [µg/mL] | MIC (B. fragilis ATCC 23745; Test 3) [µg/mL] | MIC (B. uniformis ATCC 8492; Test 1) [µg/mL] | MIC (B. uniformis ATCC 8492; Test 2) [µg/mL] | MIC (B. uniformis ATCC 8492; Test 3) [µg/mL] | MIC (C. sporogenes ATCC 19404; read-out: Minimal Inhibitory Concentration (MIC), Test 1) [µg/mL] | MIC (C. sporogenes ATCC 19404; read-out: Minimal Inhibitory Concentration (MIC), Test 3) [µg/mL] |
| --- | --- | --- | --- | --- | --- | --- | --- | --- | --- | --- | --- | --- | --- | --- |
| Clc1ccc(NN=C(Cn2ccnc2)c2ccc(Cl)s2)c(Cl)c1 [HC-363, 1-(5-chlorothien-2-yl)-2-(1H-imidazol-1-yl) ethanone, 2,4-dichlorophenylhydrazone, hydrochloride] | 2.5 | 2.5 | 7.5 | 50 | 50 | 50 | 1 | 2.5 | 2.5 | 2.5 | 2.5 | 2.5 | – | – |
| Cl.Clc1ccc(Cl)c(NN=C(Cn2ccnc2)c2ccccc2Cl)c1 [HC-469, 1-(2-chlorophenyl)-2-(1H-imidazol-1-yl)ethanone, 2,5-dichlorophenylhydrazone, hydrochloride] | 2.5 | 7.5 | 1 | 50 | 75 | 100 | 5 | 5 | 10 | 5 | 1 | 2.5 | – | – |
| Cl.Clc1cccc(Cl)c1NN=C(Cn1ccnc1)c1ccc(Br)s1 [HC-466, 1-(5-bromothien-2-yl)-2-(1H-imidazol-1-yl)ethanone, 2,6-dichlorophenylhydrazone, hydrochloride] | 5 | 5 | 5 | 50 | 50 | 50 | 1 | 5 | 5 | 1 | 5 | 5 | – | – |
| Cl.Clc1ccc(C(Cn2ccnc2)=NNc2c(Cl)cc(Cl)cc2Cl)c(Cl)c1 [HC-420, 1-(2,4-dichlorophenyl)-2-(1H-imidazol-1-yl)ethanone, 2,4,6-trichlorophenylhydrazone, hydrochloride] | 10 | 2.5 | 2.5 | 50 | 50 | 50 | 10 | 2.5 | 2.5 | 10 | 1 | 2.5 | – | – |
| Cl.FC(F)(F)c1ccc(C(Cn2ccnc2)=NNc2c(Cl)cccc2Cl)cc1 [HC-438, 1-(4-trifluoromethylphenyl)-2-(1H-imidazol-1-yl)ethanone, 2,6-dichlorophenylhydrazone, hydrochloride] | 2.5 | 7.5 | 2.5 | 25 | 50 | 75 | 5 | 7.5 | 5 | 5 | 5 | 5 | – | – |
| CC(C(=NNc1c(Cl)cccc1Cl)c1ccc(Cl)cc1)n1ccnc1 (centres unmarked) [HC-403, 1-(4-chlorophenyl)-2-(1H-imidazol-1-yl)propanone, 2,6-dichlorophenylhydrazone, hydrochloride] | – | 7.5 | – | < 50 | 7.5 | < 50 | 5 | 2.5 | 5 | 2.5 | 2.5 | 2.5 | 1 | 50 |
| Clc1ccc(NN=C(Cn2ccnc2)c2cc(Cl)ccc2Cl)c(Cl)c1 [HC-525, 1-(2,5-dichlorophenyl)-2-(1H-imidazol-1-yl) ethanone, 2,4-dichlorophenylhydrazone, hydrochloride] | 2.5 | 2.5 | 2.5 | 50 | 50 | 50 | 2.5 | 2.5 | 2.5 | 2.5 | 2.5 | 2.5 | – | – |
| Cl.Clc1cccc(Cl)c1NN=C(Cn1ccnc1)c1ccc(Br)cc1 [HC-364, 1-(4-bromophenyl)-2-(1H-imidazol-1-yl)ethanone, 2,6-dichlorophenylhydrazone, hydrochloride] | 10 | 5 | 25 | 50 | 50 | 50 | 10 | 2.5 | 5 | 10 | 2.5 | 2.5 | – | – |
| COc1ccc(C(Cn2ccnc2)=NNc2cc(Cl)ccc2Cl)cc1.Cl [HC-464, 1-(4-methoxyphenyl)-2-(1H-imidazol-1-yl)ethanone, 2,5-dichlorophenylhydrazone, hydrochloride] | 2.5 | 5 | 2.5 | 10 | 50 | 50 | 2.5 | 5 | 5 | 2.5 | 2.5 | 2.5 | – | – |
| Cl.FC(F)(F)c1cccc(C(Cn2ccnc2)=NNc2c(Cl)cccc2Cl)c1 [HC474, 1-(3-trifluoromethylphenyl)-2-(1H-imidazol-1-yl)ethanone, 2,6-dichlorophenylhydrazone, hydrochloride] | 7.5 | 5 | 5 | – | 50 | 50 | 5 | 7.5 | 7.5 | 10 | 5 | 7.5 | – | – |
| Cl.Clc1ccc(NN=C(Cn2ccnc2)c2ccccc2)c(Cl)c1 [HC-306, 1-Phenyl-2-(1H-imidazol-1-yl)ethanone, 2,4-dichlorophenylhydrazone, hydrochloride] | 10 | 2.5 | 2.5 | 50 | 50 | 25 | 10 | 2.5 | 2.5 | 10 | 2.5 | 2.5 | – | – |
| Cl.Clc1ccc(NN=C(Cn2ccnc2)c2ccccc2)cc1Cl [HC-442, 1-phenyl-2-(1H-imidazol-1-yl)ethanone, 3,4-dichlorophenylhydrazone, hydrochloride] | 5 | 2.5 | 2.5 | 50 | 75 | 100 | 2.5 | 5 | 5 | 2.5 | 5 | 5 | – | – |
| Cl.Clc1ccc(C(Cn2ccnc2)=NNc2ccccc2Br)cc1 [HC-486, 1-(4-chlorophenyl)-2-(1H-imidazol-1-yl)ethanone, 2-bromophenylhydrazone, hydrochloride] | 2.5 | 5 | 5 | 50 | 50 | 75 | 5 | 5 | 5 | 2.5 | 2.5 | 5 | – | – |
| Cl.FC(F)(F)c1ccc(C(Cn2ccnc2)=NNc2c(Cl)cc(Cl)cc2Cl)cc1 [HC-482, 1-(4-trifluoromethylphenyl)-2-(1H-imidazol-1-yl)ethanone, 2,4,6-trichlorophenylhydrazone, hydrochloride] | 5 | 5 | 5 | 25 | 25 | 25 | 5 | 5 | 5 | 2.5 | 2.5 | 2.5 | – | – |
| Cl.Fc1ccccc1C(Cn1ccnc1)=NNc1cccc(Cl)c1Cl [HC-507, 1-(2-fluorophenyl)-2-(1H-imidazol-1-yl)ethanone, 2,3-dichlorophenylhydrazone, hydrochloride] | 2.5 | 2.5 | – | – | – | – | 2.5 | 5 | – | 5 | 2.5 | – | – | – |
| Cl.Fc1ccc(C(Cn2ccnc2)=NNc2ccc(Cl)c(Cl)c2)cc1 [HC-506, 1-(4-fluorophenyl)-2-(1H-imidazol-1-yl)ethanone, 3,4-dichlorophenylhydrazone, hydrochloride] | > 50 | > 50 | – | – | – | – | 5 | 5 | – | 5 | 2.5 | – | – | – |
